From patent publication US20220267310A1, “QUINAZOLINE AND CINNOLINE DERIVATIVES AS DNA-PK INHIBITOR” (MEDSHINE DISCOVERY INC., priority 2019, published 2022) come the findings set out here.

For one data set, the target named is T1, PI3K (p110σ/p85α) (Homo sapiens, UniProt O00329).
T1 construct: Eurofins Pharma Discovery Service (contract assay)
Briefly: PI3K (p110σ/p85α) kinase inhibitory activity (HTRF). Format: biochemical. Background: In TR-FRET formats the signal depends on donor and acceptor labels being close together.

The nature of data set [1]: Pharmacokinetic evaluation in mice, IV and PO. The data set is classed as in vivo, Balb/c female mice. How it is done: The tested compound was mixed with 10% DMSO/50% PEG400/40% water, vortexized and ultrasonic to prepare 0.2 mg/mL or 0.4 mg/ml, approximately clarified solution, which was filtered by a microporous membrane and then standby. Balb/c female mice of 18-20 g were selected and given the candidate compound solution intravenously at a dose of 1 or 2 mg/kg. The tested compound was mixed with 10% DMSO/50% PEG400/40% water, vortexized and ultrasonic to prepare 0.2 mg/mL or 1 mg/mL approximately clarified solution, which was filtered by a microporous membrane and then standby. Balb/c female mice of 18 to 20 g were selected and given orally the candidate compound solution at a dose of 2 or 10 mg/kg. Whole blood was collected for a certain period of time, and plasma was prepared. Drug concentration was analyzed by LC-MS/MS method, and pharmacokinetic parameters were calculated by Phoenix WinNonlin software (US Pharsight company).
C0: instantaneous concentration required after intravenous injection; Cmax: the highest blood concentration after administration; Tmax: time required to reach peak concentration after administration; T1/2: the time required for blood drug concentration to decrease by half; Vdss: apparent volume of distribution, which refers to the ratio constant of drug dosage to blood concentration when a drug reaches dynamic equilibrium in vivo. Cl: clearance rate, referring to drug apparent distribution volume number removed from the body per unit time; Tlast: time of last detection point: AUC0-last: an area under a drug duration curve, referring to an area surrounded by the blood drug concentration curve on the time axis; Bioavailability: a measure of the rate and extent of drug absorption into the blood circulation, which was an important index to evaluate drug absorption degree.

Data set [2] has as its system human small cell lung cancer NCI-H69 cell subcutaneous xenograft tumor. Briefly: NCI-H69 subcutaneous xenograft, combination with etoposide, 22-day experiment (Table 7). The data set is classed as in vivo, BALB/c nude mice. The procedure:
Experiment example 3: in vivo pharmacodynamics of human small cell lung cancer NCI-H69 cell subcutaneous xenograft tumor BALB/c nude mouse model:
Experimental animals: Female BALB/c nude mice, 6-8 weeks old, weighing 15-22 grams; supplier: Shanghai Linchang Biotechnology Co., LTD. (Linchang, Shanghai)
Human small cell lung cancer NCI-H69 cells (ATCC, item number: HTB-119 and ECACC-95111733) were cultured in vitro in a culture condition of RPMI-1640 medium with 10% fetal bovine serum, 100 U/mL penicillin and 100 μg/mL streptomycin, incubated at 37° C. and 5% CO2. Conventional passage was carried out twice a week. When cell saturation was 80%-90% and the number reaches the requirement, cells were collected, counted and inoculated.
0.2 mL (10×10^6) NCI-H69 cells (with matrix glue, and volume ratio of 1:1) were subcutaneously inoculated into a right back of each mouse, and group administration was initiated when the average tumor volume reaches about 110-120 mm^3.
The tested compound was prepared as a 5 mg/mL clarified solution with 10% DMSO+50% polyethylene glycol 400+40% water as the solvent.
The experimental indicators refers to study whether tumor growth was inhibited, delayed, or cured. Tumor diameter was measured twice a week with a vernier caliper. The calculation formula of the tumor volume was V=0.5a×b^2, and a and b represent the long diameter and short diameter of the tumor, respectively.
The antitumor efficacy of the compound was evaluated by TGI (%) or relative tumor proliferation rate T/C (%). TGI (%) reflects the tumor growth inhibition rate. The calculation of TGI (%): TGI (%)=[1−(average tumor volume at the end of administration of a certain treatment group−average tumor volume at the beginning of administration of the treatment group)/(average tumor volume at the end of treatment in solvent control group−average tumor volume at the beginning of treatment in solvent control group)]×control group.
Relative tumor proliferation rate T/C (%): the calculation formula was as follows: T/C %=[…] TRTV/CRTV group (TRTV: treatment group RTV; CRTV: negative control group RTV). According to results of tumor measurement, Relative Tumor Volume (RTV) was calculated by the formula RTV=Vt/V0, where V0 was the average tumor volume measured in group administration (i.e., d0), and Vt was the average tumor volume measured in a certain single measurement. TRTV and CRTV collect data on the same day.
Statistic analysis includes an average value and a standard error (SEM) of tumor volume at each time point for each group. […] If there was no significant difference in F value, Dunnet (2-sided) method was applied to analysis. All data were analyzed using SPSS 17.0. P<0.05 was considered as having a significant difference.

A further data set concerns the target T2, DNA-PK (h) (Homo sapiens, UniProt P78527).
T2 construct: Eurofins Pharma Discovery Service (contract assay)
Briefly: DNA-PK kinase inhibitory activity (HTRF, Eurofins). Particulars: ATP: 10 μM. The data set is classed as biochemical. How it is done: (§1) This experiment was tested at Eurofins Pharma Discovery Service, Reaction Biology Corp. (RBC)
(§2) […] DNA-PK: Mg/ATP; GST-cMyc-p53; EDTA; Ser15 antibody; ATP: 10 μM; biotinylated phosphatidylinositol-3,4,5-triphosphate; GST label GRP1 PH domain; streptavidin and phycocyanin; europium-labelled monoclonal antibody against GST.
DNA-PK (h) was incubated in a determination buffer containing 50 nM GST-cMyc-p53 and Mg/ATP (density as required). The reaction was initiated by adding a mixture of Mg/ATP. After incubating at room temperature for 30 min, a termination solution containing EDTA was added to terminate the reaction. Finally, a detection buffer (containing labeled anti-GST monoclonal antibody and europium-labeled anti-phosphate Ser15 antibody against phosphorylated p53) was added. Then, the board was read in time-resolved fluorescence mode, and a Homogeneous Time Resolved Fluorescence (HTRF) signal was measured according to the formula HTRF=10000×(Em665 nm/Em620 nm).

In another data set the target is T3, PI3K (p110α/p85α) (Homo sapiens, UniProt P42336).
T3 construct: Eurofins Pharma Discovery Service (contract assay)
T3 sequence (P42336 whole entry, species assumed): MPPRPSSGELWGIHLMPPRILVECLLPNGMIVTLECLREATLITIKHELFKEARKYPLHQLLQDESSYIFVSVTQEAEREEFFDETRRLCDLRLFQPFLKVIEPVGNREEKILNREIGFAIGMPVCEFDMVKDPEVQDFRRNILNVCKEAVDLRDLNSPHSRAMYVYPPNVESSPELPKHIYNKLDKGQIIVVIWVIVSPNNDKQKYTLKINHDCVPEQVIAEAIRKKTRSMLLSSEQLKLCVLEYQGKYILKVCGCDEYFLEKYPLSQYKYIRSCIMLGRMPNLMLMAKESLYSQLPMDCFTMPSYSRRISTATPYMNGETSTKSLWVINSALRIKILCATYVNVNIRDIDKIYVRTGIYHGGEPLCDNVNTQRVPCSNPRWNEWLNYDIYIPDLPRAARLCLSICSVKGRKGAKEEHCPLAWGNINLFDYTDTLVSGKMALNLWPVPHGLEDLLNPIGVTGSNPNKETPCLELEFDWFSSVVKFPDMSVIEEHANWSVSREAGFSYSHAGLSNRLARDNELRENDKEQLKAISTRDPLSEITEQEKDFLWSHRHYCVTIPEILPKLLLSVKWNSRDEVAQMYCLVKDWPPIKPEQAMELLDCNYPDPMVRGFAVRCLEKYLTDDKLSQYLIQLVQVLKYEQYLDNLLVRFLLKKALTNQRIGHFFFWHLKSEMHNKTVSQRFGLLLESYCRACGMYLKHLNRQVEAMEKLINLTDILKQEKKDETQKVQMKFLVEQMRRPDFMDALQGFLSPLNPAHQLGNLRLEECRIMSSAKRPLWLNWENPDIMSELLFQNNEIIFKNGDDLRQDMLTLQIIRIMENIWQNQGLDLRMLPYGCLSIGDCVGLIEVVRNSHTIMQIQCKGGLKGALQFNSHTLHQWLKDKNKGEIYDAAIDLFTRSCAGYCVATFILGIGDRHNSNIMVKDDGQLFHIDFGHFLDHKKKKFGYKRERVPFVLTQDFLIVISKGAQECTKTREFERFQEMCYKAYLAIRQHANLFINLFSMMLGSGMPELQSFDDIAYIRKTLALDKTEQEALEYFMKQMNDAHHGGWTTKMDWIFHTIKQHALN
T3 sequence (P27986 whole entry partner, species assumed): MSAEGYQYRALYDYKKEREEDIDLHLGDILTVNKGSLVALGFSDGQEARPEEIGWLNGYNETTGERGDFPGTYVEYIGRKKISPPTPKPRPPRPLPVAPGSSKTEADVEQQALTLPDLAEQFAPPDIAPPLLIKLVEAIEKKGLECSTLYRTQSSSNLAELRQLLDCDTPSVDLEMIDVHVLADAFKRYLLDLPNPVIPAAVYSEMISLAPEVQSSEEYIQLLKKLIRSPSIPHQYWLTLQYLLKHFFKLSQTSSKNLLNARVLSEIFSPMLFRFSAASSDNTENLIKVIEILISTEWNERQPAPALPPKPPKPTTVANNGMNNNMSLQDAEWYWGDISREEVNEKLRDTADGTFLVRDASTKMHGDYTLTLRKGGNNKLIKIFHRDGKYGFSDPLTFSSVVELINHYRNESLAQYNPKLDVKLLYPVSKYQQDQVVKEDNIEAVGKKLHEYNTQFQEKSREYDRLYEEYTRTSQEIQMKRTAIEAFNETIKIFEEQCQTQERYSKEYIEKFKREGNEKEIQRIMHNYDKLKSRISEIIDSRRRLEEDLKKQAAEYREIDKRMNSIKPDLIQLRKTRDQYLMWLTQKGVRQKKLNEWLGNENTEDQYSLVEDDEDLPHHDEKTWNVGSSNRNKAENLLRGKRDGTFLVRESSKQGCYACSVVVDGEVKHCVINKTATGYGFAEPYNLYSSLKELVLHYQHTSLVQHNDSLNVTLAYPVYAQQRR
Briefly: PI3K (p110α/p85α) kinase inhibitory activity (HTRF). Format: biochemical. The procedure: as §1, §2
PI3K (p110α/p85α) was incubated in a determination buffer containing phosphatidylinositol 4,5-diphosphate and Mg/ATP (density as required). The reaction was initiated by adding an ATP solution. After incubating at room temperature for 30 min, a termination solution containing EDTA and biotinylated phosphatidylinositol-3,4,5-triphosphate was added to terminate the reaction. Finally, a detection buffer (containing labeled anti-GST monoclonal antibody, PH domain of GRP1 with GST label and streptavidin and phycyanin and […]) was added. Then, the board was read in time-resolved fluorescence mode, and an HTRF signal was measured according to the formula HTRF=10000×(Em665 nm/Em620 nm).

Setting [3] is: 40 mg/kg, PO, QD + etoposide 10 mg/kg, IP, 3-day administration, 4-day withdrawal, 22nd day.
[4] abbreviates: 40 mg/kg, PO, QD + etoposide 10 mg/kg, IP, 3-day administration, 4-day withdrawal, average ± SEM.
Setting [5] is: female, Balb/c, IV(1 mg/kg), mouse plasma.
[6] abbreviates: female, Balb/c, PO(2 mg/kg), mouse plasma.

Several values for one entry are separate records, joined by “and”; a condition that tells them apart may be missing. Equal entries are not always repeated. Where two headings read alike, the source gives them in different places.

T1 sequence (O00329 whole entry): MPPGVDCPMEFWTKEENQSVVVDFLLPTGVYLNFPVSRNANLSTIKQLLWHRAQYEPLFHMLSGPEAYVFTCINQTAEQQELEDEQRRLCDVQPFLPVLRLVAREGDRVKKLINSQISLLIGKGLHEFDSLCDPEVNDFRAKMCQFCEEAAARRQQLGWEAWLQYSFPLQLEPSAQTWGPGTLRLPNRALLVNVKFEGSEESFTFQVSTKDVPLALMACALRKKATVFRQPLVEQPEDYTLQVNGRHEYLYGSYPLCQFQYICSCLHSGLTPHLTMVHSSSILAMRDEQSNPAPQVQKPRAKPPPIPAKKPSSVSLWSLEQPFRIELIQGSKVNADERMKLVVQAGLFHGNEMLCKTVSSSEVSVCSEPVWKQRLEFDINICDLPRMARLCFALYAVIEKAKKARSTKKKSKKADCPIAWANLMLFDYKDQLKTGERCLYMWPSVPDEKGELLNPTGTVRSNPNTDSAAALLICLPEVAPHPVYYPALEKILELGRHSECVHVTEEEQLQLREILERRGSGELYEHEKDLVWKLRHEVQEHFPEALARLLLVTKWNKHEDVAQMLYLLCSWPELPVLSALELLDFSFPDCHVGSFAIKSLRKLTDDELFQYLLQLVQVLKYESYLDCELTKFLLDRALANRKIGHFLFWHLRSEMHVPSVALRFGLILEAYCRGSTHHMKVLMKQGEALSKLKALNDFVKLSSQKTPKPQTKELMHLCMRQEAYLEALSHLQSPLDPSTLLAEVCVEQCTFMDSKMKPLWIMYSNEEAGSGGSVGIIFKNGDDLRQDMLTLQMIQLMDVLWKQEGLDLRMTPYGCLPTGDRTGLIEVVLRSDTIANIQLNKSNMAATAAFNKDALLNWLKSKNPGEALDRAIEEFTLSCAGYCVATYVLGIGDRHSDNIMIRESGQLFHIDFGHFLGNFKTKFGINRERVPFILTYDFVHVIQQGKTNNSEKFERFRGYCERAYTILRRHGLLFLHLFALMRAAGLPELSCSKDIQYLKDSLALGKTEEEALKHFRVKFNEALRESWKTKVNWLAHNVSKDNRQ
T1 sequence (P27986 whole entry partner): as the sequence (P27986 whole entry partner, species assumed) above

Usually IC50 stands for the concentration that gives 50% inhibition. A lower IC50 goes with greater potency. The Cmax is the peak of the concentration-time curve. For orientation: Tmax means the time from dosing to the highest level. Turning to `COc1ccc(C(O)c2cc(-c3ccnc4cc(N5CCOCC5)ccc34)c(F)cc2Cl)nn1` (single isomer, unassigned) [Embodiment 2], the IC50 against PI3K (p110σ/p85α) amounted to 13 nM. In addition, in data set [1] (IV(2 mg/kg), mouse plasma), the “AUC0-last” value came out at 3.354 µM·h, the C0 was found to be 1810 nM, the “Cl” value is 20.3 mL/min/kg and the “T1/2” value is given as 1.33 h. Also, in data set [1] (IV(2 mg/kg), mouse plasma), the “Tlast” value is recorded as 8.00 h and the “Vdss” value was 2.25 L/kg. Besides, in data set [1] (PO(10 mg/kg), mouse), the “Bioavailability (%)” value stood at 60.8%. Moreover, in data set [1] (PO(10 mg/kg), mouse plasma), the “AUC0-last” value came out at 9.073 µM·h, the maximum concentration (Cmax) worked out at 2520 nM, the “T1/2” value came out at 2.47 h and the “Tlast” value was 8.00 h. Moreover, the “Tmax” value in data set [1] (PO(10 mg/kg), mouse plasma) is 1.00 h. Moreover, the Weight changes in data set [2] (40 mg/kg group (+ etoposide 10 mg/kg, IP)) is −16.66%. Further, the “RTV (22th day)” value in data set [2] (40 mg/kg, PO, QD + etoposide 10 mg/kg, IP, 3-day administration, 4-day withdrawal) was found to be 1.84. Besides, in data set [2] (setting [3]), the “T/C (%)” value is given as 21.37%; the “TGI (%)” value is 89% and 88.96%. In data set [2] (setting [4]), the “Tumor volume (mm^3) (0th day)” value is 119 ± 13 mm^3 and the “Tumor volume (mm^3) (22th day)” value was determined as 219 ± 44 mm^3. The compound also gave an IC50 against DNA-PK (h) of 0.5 nM. The compound also gave an IC50 on PI3K (p110α/p85α) of 39 nM.

The bioavailability is the share of a dose that reaches the circulation, judged against a reference dose that is usually intravenous. Usually AUC(0-t) stands for the area under the concentration-time curve up to a stated or last time point. Higher therefore signals high exposure. As a reminder, the half-life is how long it takes for the measured level to halve. Read a high half-life as slow loss. For `COc1ccc(C(O)c2cc(-c3cnnc4cc(N5CCOCC5)ccc34)c(F)cc2Cl)nn1` (stereo not drawn) [Embodiment 3], the IC50 against PI3K (p110σ/p85α) was determined as 132 nM; at DNA-PK (h) it was 3.5 nM; against PI3K (p110α/p85α), 509 nM. For the same compound, the “Tlast” value amounted to 8.00 h in data set [1] (IV(1 mg/kg), mouse plasma) and 8.00 h in data set [1] (PO(2 mg/kg), mouse plasma). The bioavailability in data set [1] (female, Balb/c, plasma, PO(2 mg/kg), mouse) is 48.2%. Further, the AUC(0-t) came to 1.85 µM·h in data set [1] (setting [5]) and 1.79 µM·h in data set [1] (setting [6]). The same compound showed a C0 in data set [1] (setting [5]) of 1260 nM. In data set [1] (setting [5]), this compound came in with a clearance of 17.9 mL/min/kg. In addition, the results for the half-life in data set [1] (setting [5]) and in data set [1] (setting [6]) were 1.27 h and 2.83 h, respectively. Also, in data set [1] (female, Balb/c, IV(1 mg/kg), mouse plasma, read-out: Vdss), the Vd was 1.42 L/kg. In addition, the highest level in data set [1] (setting [6]) (Cmax) was 459 nM. Besides, the Tmax in data set [1] (female, Balb/c, PO(2 mg/kg), mouse plasma, read-out: Tmax) was 0.5 h.
